Measurements taken from patent publication US20230203023A1, “SALT AND CRYSTAL FORMS OF GLP-1R AGONISTS AND USES THEREOF” (QILU REGOR THERAPEUTICS INC., priority 2020, published 2023).
In brackets after ≈: the same amount, converted by molar mass. Read-outs that look alike come from different tables or passages of the source.

How the values were obtained:
[1] = Solid stability evaluation (I/II), XRPD and HPLC; type: physicochemical; settings: for Purity (area %): listed as Amorphous Free form
Experimental: To evaluate the physical and chemical stability of 1:1 Compound I Tris Salt (Form A) and amorphous free form, samples were stored under the conditions of 60° C. for 1 day and 25° C./60% RH or 40° C./75% RH for 1 week, respectively.
To evaluate the physical and chemical stability of 1:1 Compound II Citrate Salt (Form A), 1:1 Compound II Tris Salt (Form B) and freeform, samples were stored under the conditions of 60° C. for 1 day and 25° C./60% RH or 40° C./75% RH for 1 week, respectively.

[2] = Kinetic solubility test in water and bio-relevant media (SGF, FaSSIF, FeSSIF); type: physicochemical; settings: for solubility at 1 h: 37 °C, thermodynamic from solid, read-out: S: solubility; for solubility at 1 h / S: solubility: 37° C.; for Purity (%), area percentage of API: for reference only (suspensions); for FC: form change: residual solids by XRPD; for pH: supernatant
Experimental: (§1) Weigh 100 mg of sodium chloride and 50 mg of Triton X-100 into a 50-mL volumetric flask. Add appropriate volume of purified water and sonicate until all solids are completely dissolved. Add about 68 μL of 12 M HCl and sufficient purified water closely to the target volume and adjust to pH 1.8. Dilute to volume with purified water, mix well and check the pH with a pH meter.
as §1, with “170” for “100”, “phosphate monobasic, 21” for “chloride and 50”, “sodium hydroxide and 310 mg of sodium chloride, 110 mg of SIF powder” for “Triton X-100”, “Add” for “Add about 68 μL of 12 M HCl and”, “6.5.” for “1.8.”
Weigh 0.41 mL of glacial acetic acid, 202 mg of sodium hydroxide and 594 mg of sodium chloride, 560 mg of SIF powder into a 50-mL volumetric flask. Add appropriate volume of purified water to dissolve the solids. Then add sufficient purified water closely to the target volume and adjust to pH 5.0. Dilute to volume with purified water, mix well and check the pH with a pH meter.
Kinetic solubility was evaluated in water and three bio-relevant media (SGF, FaSSIF and FeSSIF) for 1/4/24 hours. 3-4 mg of solids were suspended in 3 mL each medium (solid loading: 1 mg/mL, calculated using freeform) to get a suspension, followed by rolling (25 rpm) at 37° C. for 1/4/24 hours. At each time point, ˜1.0 mL of suspension was sampled out for centrifugation (12000 rpm, 2 min) and filtration through 0.45 μm PTFE membrane to obtain supernatant for HPLC and pH tests, the residual solids were analyzed by XRPD.
Kinetic solubility was evaluated for 1:1 Compound II Citrate Salt (Form A), 1:1 Compound II Tris Salt (Form B), and freeform of Compound II in water and three bio-relevant media (SGF, FaSSIF and FeSSIF) for 1/4/24 hours. 3-4 mg of solids were suspended in 3 mL each medium (solid loading:
1 mg/mL, calculated using freeform) to get a suspension, followed by rolling (25 rpm) at 37° C. for 1/4/24 hours. At each time point, ˜1.0 mL of suspension was sampled out for centrifugation (12000 rpm, 2 min) and filtration through 0.45 μm PTFE membrane to obtain supernatant for HPLC and pH tests, the residual solids were analyzed by XRPD. […] The purity results were for reference only since the samples were all suspensions.

[3] = FaSSIF, 4 hours, listed as Free form amorphous
[4] = FaSSIF, 24 hours, listed as Free form amorphous
[5] = FeSSIF, 1 hour, listed as Free form amorphous
[6] = FeSSIF, 4 hours, listed as Free form amorphous
[7] = FeSSIF, 24 hours, listed as Free form amorphous
[8] = H2O, 1 hour, listed as Free form amorphous
[9] = H2O, 4 hours, listed as Free form amorphous
[10] = H2O, 24 hours, listed as Free form amorphous
[11] = SGF, 1 hour, listed as Free form amorphous
[12] = SGF, 4 hours, listed as Free form amorphous
[13] = SGF, 24 hours, listed as Free form amorphous

Form change ([1]; 25° C./60% RH (open), 1 week): No
Observation ([1]; 25° C./60% RH (open), 1 week): Yellowish
Purity (area %) ([1]; 25° C./60% RH (open), 1 week): 93.06 area %
Purity (area %) ([1]; 40° C./75% RH (open), 1 week): 89.59 area %
Form change ([1]; 60° C. (capped), 1 day): No
Observation ([1]; 60° C. (capped), 1 day): Yellowish
Purity (area %) ([1]; 60° C. (capped), 1 day): 86.88 area %
Form change ([1]; Initial): No
Observation ([1]; Initial): White powder
Purity (area %) ([1]; Initial): 94.71 area %
solubility at 1 h ([2]; FaSSIF, pH 6.5, fassif, FaSSIF, 1 hour): 200 µg/mL (≈ 356 µM)
Purity (%), area percentage of API ([2]; FaSSIF, 1 hour, listed as Free form amorphous): 93.54%
S: solubility [2, 3]: 80 µg/mL
Purity (%), area percentage of API ([2]; FaSSIF, 4 hours): 49.59%
S: solubility [2, 4]: 40 µg/mL
Purity (%), area percentage of API [2, 4]: 63.24%
solubility at 1 h ([2]; FeSSIF, pH 5, fessif, FeSSIF, 1 hour): 400 µg/mL (≈ 712 µM)
Purity (%), area percentage of API [2, 5]: 94.78%
S: solubility [2, 6]: 500 µg/mL
Purity (%), area percentage of API [2, 6]: 91.80%
S: solubility [2, 7]: 400 µg/mL
Purity (%), area percentage of API [2, 7]: 77.57%
S: solubility [2, 8]: 30 µg/mL
Purity (%), area percentage of API [2, 8]: 100.00%
S: solubility [2, 9]: 20 µg/mL
Purity (%), area percentage of API [2, 9]: 87.13%
S: solubility [2, 10]: <LOQ
Purity (%), area percentage of API [2, 10]: 9.97%
S: solubility ([2]; SGF, 1 hour): 400 µg/mL
Purity (%), area percentage of API [2, 11]: 93.07%
S: solubility [2, 12]: 600 µg/mL
Purity (%), area percentage of API [2, 12]: 94.02%
S: solubility [2, 13]: 800 µg/mL
Purity (%), area percentage of API [2, 13]: 91.48%
FC: form change ([2]; FaSSIF, 1 hour): No
FC: form change ([2]; FaSSIF, 4 hours): No
FC: form change [2, 4]: Yes
FC: form change ([2]; FeSSIF, 1 hour): No
FC: form change ([2]; FeSSIF, 4 hours): No
FC: form change ([2]; FeSSIF, 24 hours): No
FC: form change ([2]; H2O, 1 hour): No
FC: form change ([2]; H2O, 4 hours): No
FC: form change ([2]; H2O, 24 hours): No
FC: form change [2, 11]: No
FC: form change [2, 12]: No
FC: form change [2, 13]: No
pH ([2]; FaSSIF, 1 hour): 6.5
pH [2, 3]: 6.5
pH [2, 4]: 6.4
pH [2, 5]: 5.0
pH ([2]; FeSSIF, 4 hours): 5.0
pH ([2]; FeSSIF, 24 hours): 5.0
pH [2, 8]: 8.4
pH [2, 9]: 7.3
pH [2, 10]: 6.8
pH [2, 12]: 1.9
SMILES: O=C(O)c1ccc2nc(CN3CC=C(c4cccc(OCc5ccc(Cl)cc5F)c4)CC3)n(C[C@@H]3CCO3)c2c1 [Compound I, (S)-2-((4-(3-((4-chloro-2-fluorobenzyl)-oxy)phenyl)-3,6-dihydropyridin-1(2H)-yl)methyl)-1-(oxetan-2-ylmethyl)-1H-benzo[d]-imidazole-6-carboxylic acid]
